Source: patent EP0318767A2, “Esters of pharmacologically active carboxylic acids splittable under physiological conditions” (F. HOFFMANN-LA ROCHE AG, priority 1987, dated 1989)

What was measured:
Mäusen = assay: Acute toxicity after a single oral administration to mice; type: in vivo
Text: (§1) Man verursacht eine experimentelle Septikämie in 16-20 g schweren Albinomäusen, indem man den Versuchstieren eine Probe einer verdünnten Kultur des Testorganismus, Escherichia coli 25922, welche über Nacht gewachsen ist. intraperitoneal injiziert. Die verabreichte Probe wird dabei so bemessen, dass die verabreichte Dosis etwa 10-20 mal grösser ist, als die Dosis, welche benötigt wird um 50% der unbehandelten Versuchstiere innerhalb von 48 Stunden zu töten. Die Bakterien wurden als Suspension in Kulturbrühe injiziert. Sowohl für die Kontrolle als auch für die Behandlung wurden für jede getestete Dosis Gruppen zu je 5 Versuchstieren verwendet. Die erfindungsgemässen Ester wurden oral verabreicht, und zwar als Lösung in Tween 80 (4%), wobei die Konzentrationen so gewählt wurden, dass jedes Versuchstier 500 µl erhielt. Die Behandlungen erfolgten 1 und 3 Stunden nach der Infektion. Die ED₅₀ ist diejenige Dosis, welche 50% der Versuchstiere schützt, und wurde ausgehend von der Ueberlebensrate nach 4 Tagen nach der Infektion mittels der Probitmethode berechnet. In der nachfolgenden Tabelle sind die ED₅₀-Werte in mg/kg p.o. für Vertreter der erfindungsgemassen Stoffklasse angegeben. Die Tabelle enthält ausserdem Angaben über die akute Toxizität der erfindungsgemässen Ester bei einmaliger oraler Verabreichung an Mäusen. Tabelle

Escherichia coli 25922 = assay: Experimental septicaemia in mice, oral antimicrobial efficacy; type: in vivo; settings: Albino mice 16-20 g infected i.p. with Escherichia coli 25922, ester given orally in Tween 80 (4%) 1 and 3 h after infection, dose protecting 50% of animals, survival 4 days after infection, probit method; for ED50: read-out: ED₅₀ in mg/kg p.o.
Text: Die perorale antimikrobielle Wirksamkeit der erfindungsgemässen Ester von antibiotisch wirksamen Carbonsäuren kann beispielsweise im nachfolgend beschriebenen Tierversuch nachgewiesen werden:
as §1

CC/C=C(\COC(=O)C1=C(CN=[N+]=[N-])CS[C@@H]2[C@H](NC(=O)/C(=N\OC)c3csc(N)n3)C(=O)N12)C(=O)OCC(C)C [Verbindung A, (E)-2-(Isobutoxycarbonyl)-2-pentenyl (6R,7R)-7-[(Z)-2-(2-amino-4-thiazolyl)-2-(methoxyimino)acetamido]-3-(azidomethyl)-8-oxo-5-thia-1-azabicyclo[4.2.0]oct-2-en-2-carboxylat]
DL₅₀ in mg/kg p.o. (Mäusen): >5000 mg/kg | ED50 (Escherichia coli 25922): 0.28 mg/kg

CC/C=C(\COC(=O)C1=C(C)CS[C@@H]2[C@H](NC(=O)/C(=N\OC)c3csc(N)n3)C(=O)N12)C(=O)OCC(C)C [Verbindung B, (E)-2-(Isobutoxycarbonyl)-2-pentenyl (6R,7R)-7-[(Z)-2-(2-amino-4-thiazolyl)-2-(methoxyimino)acetamido]-3-methyl-8-oxo-5-thia-1-azabicyclo[4.2.0]oct-2-en-2-carboxylat]
ED50 (Escherichia coli 25922): 1.4 mg/kg

C/C=C(\COC(=O)C1=C(C)CS[C@@H]2[C@H](NC(=O)/C(=N\OC)c3csc(N)n3)C(=O)N12)C(=O)OCC [Verbindung C, (E)-2-(Aethoxycarbonyl)-2-butenyl (6R,7R)-7-[(Z)-2-(2-amino-4-thiazolyl)-2-(methoxyimino)acetamido]-3-methyl-8-oxo-5-thia-azabicyclo[4.2.0]oct-2-en-2-carboxylat]
DL₅₀ in mg/kg p.o. (Mäusen): >5000 mg/kg | ED₅₀ in mg/kg p.o. (Escherichia coli 25922): 0,89 mg/kg
